Measurements reported in ChEMBL document CHEMBL2069287, “Salidroside protects human erythrocytes against hydrogen peroxide-induced apoptosis” (J Nat Prod, 2012).
Activity calls are given as the source filed them. The rule behind the calls is not given here.

Tests used:
Erythrocyte [1] = assay: Cytoprotective activity against H202-induced eryptosis in human erythrocytes assessed as viable cells at 300 uM after 24 hrs by PE-annexinV/calcein flow cytometric assay (reference value: 63.38%); type: functional; settings: read-out: Activity
Erythrocyte [2] = assay: Cytoprotective activity in human erythrocytes assessed as decrease in caspase-3-mediated FAM-DEVD-FMK cleavage at 100 uM after 24 hrs by fluorometric assay (reference value: 0.28%); type: functional; design: scale not given: the % may be the effect or the level left
Erythrocyte [3] = assay: Cytoprotective activity in human erythrocytes assessed as decrease in caspase-3-mediated FAM-DEVD-FMK cleavage at 300 uM after 24 hrs by fluorometric assay (reference value: 0.28%); type: functional; design: scale not given: the % may be the effect or the level left
[4] = Induction of eryptosis in human erythrocytes assessed as late apoptotic cells at 100 uM after 24 hrs by PE-annexinV/calcein flow cytometric assay (reference value: 0%); type: cell-based; settings: erythrocyte
Erythrocyte [5] = assay: Cytoprotective activity against H202-induced eryptosis in human erythrocytes assessed as early apoptotic cells at 100 uM after 24 hrs by PE-annexinV/calcein flow cytometric assay (reference value: 9.34%); type: functional
Erythrocyte [6] = assay: Cytoprotective activity against H202-induced eryptosis in human erythrocytes assessed as early apoptotic cells at 300 uM after 24 hrs by PE-annexinV/calcein flow cytometric assay (reference value: 9.34%); type: functional
Erythrocyte [7] = assay: Cytoprotective activity against H202-induced eryptosis in human erythrocytes assessed as viable cells at 100 uM after 24 hrs by PE-annexinV/calcein flow cytometric assay (reference value: 63.38%); type: functional; settings: read-out: Activity
Erythrocyte [8] = assay: Cytoprotective activity against H202-induced eryptosis in human erythrocytes assessed as very early apoptotic cells at 300 uM after 24 hrs by PE-annexinV/calcein flow cytometric assay (reference value: 27.15%); type: functional
Erythrocyte [9] = assay: Cytoprotective activity in human erythrocytes assessed as protection against H202-induced hemolysis from 2 to 24 hrs by spectrophotometry; type: functional, cell-based
Erythrocyte [10] = assay: Cytoprotective activity in human erythrocytes assessed as decrease in STS-mediated caspase3 activation at 300 uM after 24 hrs by fluorimetric assay (reference value: 58.78%); type: functional; design: scale not given: the % may be the effect or the level left
Erythrocyte [11] = assay: Cytoprotective activity against H202-induced eryptosis in human erythrocytes assessed as very early apoptotic cells at 100 uM after 24 hrs by PE-annexinV/calcein flow cytometric assay (reference value: 27.15%); type: functional
Erythrocyte [12] = assay: Antioxidant activity in human erythrocytes assessed as decrease in H202-induced ROS production after 24 hrs by DCF-based flow cytometric analysis; type: functional, cell-based
Erythrocyte [13] = assay: Cytoprotective activity in human erythrocytes assessed as decrease in ionomycin-induced cytosolic free calcium level at 100 uM after 24 hrs by Fluo4 staining-based assay (reference value: 1.76%); type: functional; design: scale not given: the % may be the effect or the level left
[14] = Induction of eryptosis in human erythrocytes assessed as very early apoptotic cells at 100 uM after 24 hrs by PE-annexinV/calcein flow cytometric assay (reference value: 0.2%); type: cell-based; settings: erythrocyte
[15] = Toxicity in human erythrocytes assessed as hemolysis up to 400 uM after 24 hrs by spectrophotometry; type: cell-based; settings: erythrocyte
Erythrocyte [16] = assay: Cytoprotective activity against H202-induced eryptosis in human erythrocytes assessed as late apoptotic cells at 100 uM after 24 hrs by PE-annexinV/calcein flow cytometric assay (reference value: 0.13%); type: functional
Erythrocyte [17] = assay: Cytoprotective activity in human erythrocytes assessed as decrease in ionomycin-induced cytosolic free calcium level at 300 uM after 24 hrs by Fluo4 staining-based assay (reference value: 57.79%); type: functional; design: scale not given: the % may be the effect or the level left
[18] = Induction of eryptosis in human erythrocytes assessed as very early apoptotic cells at 300 uM after 24 hrs by PE-annexinV/calcein flow cytometric assay (reference value: 0.2%); type: cell-based; settings: erythrocyte
[19] = Induction of eryptosis in human erythrocytes assessed as early apoptotic cells at 300 uM after 24 hrs by PE-annexinV/calcein flow cytometric assay (reference value: 2.59%); type: cell-based; settings: erythrocyte
Erythrocyte [20] = assay: Cytoprotective activity in human erythrocytes assessed as decrease in H202-induced caspase-3-mediated FAM-DEVD-FMK cleavage at 100 uM after 24 hrs by fluorometric assay (reference value: 51.22%); type: functional; design: scale not given: the % may be the effect or the level left
Erythrocyte [21] = assay: Cytoprotective activity in human erythrocytes assessed as protection against H202-induced hemolysis at 50 to 100 uM from 2 to 24 hrs by spectrophotometry; type: functional, cell-based
Erythrocyte [22] = assay: Cytoprotective activity against H202-induced apoptosis in human erythrocytes assessed as decrease in phosphatidylserine externalization after 24 hrs by PE-annexinV/Fluor4 flow cytometric analysis; type: functional, cell-based
Erythrocyte [23] = assay: Cytoprotective activity in human erythrocytes assessed as decrease in STS-mediated caspase3 activation at 100 uM after 24 hrs by fluorimetric assay (reference value: 58.78%); type: functional; design: scale not given: the % may be the effect or the level left
[24] = Induction of eryptosis in human erythrocytes assessed as viable cells at 100 uM after 24 hrs by PE-annexinV/calcein flow cytometric assay (reference value: 97.21%); type: cell-based, Erythrocyte; settings: read-out: Activity
[25] = Induction of eryptosis in human erythrocytes assessed as late apoptotic cells at 300 uM after 24 hrs by PE-annexinV/calcein flow cytometric assay (reference value: 0%); type: cell-based; settings: erythrocyte
[26] = Antioxidant activity in human erythrocytes assessed as decrease in H202-induced ROS production at 100 uM after 24 hrs by DCF-based flow cytometric analysis (reference value: 68.32%); type: functional, Erythrocyte; design: scale not given: the % may be the effect or the level left
Erythrocyte [27] = assay: Cytoprotective activity against H202-induced eryptosis in human erythrocytes assessed as late apoptotic cells at 300 uM after 24 hrs by PE-annexinV/calcein flow cytometric assay (reference value: 0.13%); type: functional
Erythrocyte [28] = assay: Cytoprotective activity against H202-induced apoptosis in human erythrocytes assessed as decrease in cytosolic free calcium level after 24 hrs by PE-annexinV/Fluor4 flow cytometric analysis; type: functional, cell-based
[29] = Toxicity in human erythrocytes assessed as hemolysis up to 800 uM after 2 hrs by spectrophotometry; type: cell-based; settings: erythrocyte
[30] = Antioxidant activity in human erythrocytes assessed as decrease in H202-induced ROS production at 300 uM after 24 hrs by DCF-based flow cytometric analysis (reference value: 68.32%); type: functional, Erythrocyte; design: scale not given: the % may be the effect or the level left
Erythrocyte [31] = assay: Cytoprotective activity in human erythrocytes assessed as decrease in H202-induced caspase-3-mediated FAM-DEVD-FMK cleavage after 24 hrs by fluorometric assay; type: functional, cell-based
[32] = Induction of eryptosis in human erythrocytes assessed as early apoptotic cells at 100 uM after 24 hrs by PE-annexinV/calcein flow cytometric assay (reference value: 2.59%); type: cell-based; settings: erythrocyte
Erythrocyte [33] = assay: Cytoprotective activity in human erythrocytes assessed as decrease in H202-induced caspase-3-mediated FAM-DEVD-FMK cleavage at 300 uM after 24 hrs by fluorometric assay (reference value: 51.22%); type: functional; design: scale not given: the % may be the effect or the level left
[34] = Induction of eryptosis in human erythrocytes assessed as viable cells at 300 uM after 24 hrs by PE-annexinV/calcein flow cytometric assay (reference value: 97.21%); type: cell-based, Erythrocyte; settings: read-out: Activity

For `OC[C@H]1O[C@@H](OCCc2ccc(O)cc2)[C@H](O)[C@@H](O)[C@@H]1O` [SALIDROSIDE], the viability at 300 µM (Erythrocyte [1]) was 74.7%, the Activity (Erythrocyte [2]) was 0.23% and the Activity (Erythrocyte [3]) was 0.22%. For the same molecule, the Activity [4] was 0%, the Activity (Erythrocyte [5]) was 12.38% and the Activity (Erythrocyte [6]) was 11.08%. For the same molecule, the viability at 100 µM (Erythrocyte [7]) was 70.4%, the Activity (Erythrocyte [8]) was 14.16% and the Activity (Erythrocyte [9]) was “Dose-dependent effect”. For the same molecule, the Activity (Erythrocyte [10]) was 47.16%, the Activity (Erythrocyte [11]) was 17.01% and the Activity (Erythrocyte [12]) was “Dose-dependent effect”. For the same molecule, the Activity (Erythrocyte [13]) was 48.77%, the Activity [14] was 0.14% and the Activity [15] was “Non-toxic”. It also gave an Activity (Erythrocyte [16]) of 0.18%, an Activity (Erythrocyte [17]) of 46.24% and an Activity [18] of 0.04%. For the same molecule, the Activity [19] was 2.46%, the Activity (Erythrocyte [20]) was 42.12% and the Activity (Erythrocyte [21]) was “Active”. The Activity (Erythrocyte [22]) was “Dose-dependent effect”, the Activity (Erythrocyte [23]) was 49.38% and the viability at 24 h, 100 µM [24] was 97.5%. For the same molecule, the Activity [25] was 0%, the Activity [26] was 58.82% and the Activity (Erythrocyte [27]) was 0.11%. The Activity (Erythrocyte [28]) was “Dose-dependent effect”, the Activity [29] was “Non-toxic” and the Activity [30] was 51.39%. For the same molecule, the Activity (Erythrocyte [31]) was “Dose-dependent effect”, the Activity [32] was 2.38% and the Activity (Erythrocyte [33]) was 37.71%. It also gave a viability at 24 h, 300 µM [34] of 97.5%.
